# No end group written: not given here.
# Columns and labels:
# [1] = test system: C. perfringens MLG0618; format: cell-based, Clostridium perfringens
# [2] = test system: C. perfringens MLG0712; format: cell-based, Clostridium perfringens
# [3] = test system: C. perfringens MLG2314; format: cell-based, Clostridium perfringens
# [4] = test system: C. perfringens MLG7309; format: cell-based, Clostridium perfringens
# [5] = test system: C. perfringens MLG0712; format: cell-based, Clostridium perfringens; remark: listed apart in the source
# [6] = test system: C. perfringens MLG0418; format: cell-based, Clostridium perfringens
# [7] = test system: C. perfringens MLG3406; format: cell-based, Clostridium perfringens
# [8] = test system: C. perfringens MLG4206; format: cell-based, Clostridium perfringens
# [9] = test system: C. perfringens MLG7814; format: cell-based, Clostridium perfringens
# [10] = test system: C. perfringens MLG3111; format: cell-based, Clostridium perfringens
# [11] = test system: C. perfringens MLG3406; format: cell-based, Clostridium perfringens; remark: listed apart in the source
# [12] = test system: C. perfringens MLG5806; format: cell-based, Clostridium perfringens
# [13] = test system: C. perfringens MLG7307; format: cell-based, Clostridium perfringens
# [14] = test system: C. perfringens MLG5719; format: cell-based, Clostridium perfringens
# [15] = test system: C. perfringens MLG1108; format: cell-based, Clostridium perfringens
# [16] = test system: C. perfringens MLG7009; format: cell-based, Clostridium perfringens
# [17] = test system: C. perfringens MLG7814; format: cell-based, Clostridium perfringens; remark: listed apart in the source
# [18] = test system: C. perfringens MLG6907; format: cell-based, Clostridium perfringens
# [19] = test system: C. perfringens MLG4201; format: cell-based, Clostridium perfringens
# [20] = test system: C. perfringens MLG1108; format: cell-based, Clostridium perfringens; remark: listed apart in the source
# [21] = test system: C. perfringens MLG7009; format: cell-based, Clostridium perfringens; remark: listed apart in the source
# [22] = test system: C. perfringens MLG5806; format: cell-based, Clostridium perfringens; remark: listed apart in the source
# [23] = test system: C. perfringens MLG1819; format: cell-based, Clostridium perfringens
# [24] = test system: C. perfringens MLG4201; format: cell-based, Clostridium perfringens; remark: listed apart in the source
# [25] = test system: C. perfringens MLG1619; format: cell-based, Clostridium perfringens
# [26] = test system: C. perfringens MLG2314; format: cell-based, Clostridium perfringens; remark: listed apart in the source
# [27] = test system: C. perfringens MLG2919; format: cell-based, Clostridium perfringens
# [28] = test system: C. perfringens MLG2203; format: cell-based, Clostridium perfringens
# [29] = test system: C. perfringens MLG6907; format: cell-based, Clostridium perfringens; remark: listed apart in the source
# [30] = test system: C. perfringens MLG0618; format: cell-based, Clostridium perfringens; remark: listed apart in the source
# [31] = test system: C. perfringens MLG7307; format: cell-based, Clostridium perfringens; remark: listed apart in the source
# [32] = test system: C. perfringens MLG5719; format: cell-based, Clostridium perfringens; remark: listed apart in the source
# [33] = test system: C. perfringens MLG2919; format: cell-based, Clostridium perfringens; remark: listed apart in the source
# [34] = test system: C. perfringens MLG1619; format: cell-based, Clostridium perfringens; remark: listed apart in the source
# [35] = test system: C. perfringens MLG1819; format: cell-based, Clostridium perfringens; remark: listed apart in the source
# [36] = test system: C. perfringens MLG4206; format: cell-based, Clostridium perfringens; remark: listed apart in the source
# [37] = test system: C. perfringens MLG7309; format: cell-based, Clostridium perfringens; remark: listed apart in the source
# [38] = test system: C. perfringens MLG0418; format: cell-based, Clostridium perfringens; remark: listed apart in the source
# [39] = test system: C. perfringens MLG3111; format: cell-based, Clostridium perfringens; remark: listed apart in the source
# [40] = test system: C. perfringens MLG2203; format: cell-based, Clostridium perfringens; remark: listed apart in the source
# [41] = test system: Campylobacter coli ATCC 33559; conditions: ATCC 33559, 24 h
# [42] = test system: C. coli ATCC33559; conditions: ATCC33559, 24 h, 200 μg/mL
substance,measurement,setting,value
"Nisin (ITSISLCTPGCKTGALMGCNMKTATCHCSIHVSK; thioether (positions not given here); not fully specified (some residues, bridges); UniProt P13068 24-57, looked up)",MIC,[1],0.39 µg/mL
same,Inhibition halos,[2],17 mm
same,Inhibition halos,[3],20 mm
same,MIC,[4],0.78 µg/mL
same,MIC,[5],0.39 µg/mL
same,MIC,[6],1.56 µg/mL
same,MIC,[7],3.12 µg/mL
same,MIC,[8],1.56 µg/mL
same,Inhibition halos,[9],23 mm
same,MIC,[10],0.39 µg/mL
same,Inhibition halos,[11],19 mm
same,MIC,[12],1.56 µg/mL
same,Inhibition halos,[13],20 mm
same,MIC,[14],1.56 µg/mL
same,Inhibition halos,[15],16 mm
same,Inhibition halos,[16],20 mm
same,MIC,[17],3.12 µg/mL
same,MIC,[18],1.56 µg/mL
same,Inhibition halos,[19],18 mm
same,MIC,[20],0.78 µg/mL
same,MIC,[21],1.56 µg/mL
same,Inhibition halos,[22],19 mm
same,MIC,[23],0.39 µg/mL
same,MIC,[24],0.78 µg/mL
same,MIC,[25],0.19 µg/mL
same,MIC,[26],1.56 µg/mL
same,MIC,[27],1.56 µg/mL
same,MIC,[28],<0.09 µg/mL
same,Inhibition halos,[29],23 mm
same,Inhibition halos,[30],14 mm
same,MIC,[31],0.78 µg/mL
same,Inhibition halos,[32],19 mm
same,Inhibition halos,[33],21 mm
same,Inhibition halos,[34],20 mm
same,Inhibition halos,[35],19 mm
same,Inhibition halos,[36],25 mm
same,Inhibition halos,[37],17 mm
same,Inhibition halos,[38],23 mm
same,Inhibition halos,[39],27 mm
same,Inhibition halos,[40],24 mm
MGAIAKLVAKFGWPIVKKYYKQIMQFIGEGWAINKIIEWIKKHI [Enterocin L50A],MIC,[41],25 µg/mL
same,Inhibition halos,[42],10 mm
